Laboratory results from patent US20260028365A1 (BIOGEN MA INC., priority 2022, published 2026).
Where two headings read alike, the source gives them in different places.

Assays:
JH2 domain of human Tyk2 = JH2 domain of human Tyk2 (Homo sapiens (Human), UniProt P29597); assay: JH2 Biochemical Assay (TR-FRET probe displacement); format: binding
Tyk2 = Tyk2 (Homo sapiens (Human), UniProt P29597); assay: pSTAT4 Cell Assay (MSD, NK92 cells); format: cell-based
[1] = JH2 domain of human Tyk2, TR-FRET probe displacement
[2] = TR-FRET probe displacement, JH2 domain of human Tyk2
[3] = TR-FRET probe displacement, JH2 domain

Chain of JH2 domain of human Tyk2 (P29597 575-876): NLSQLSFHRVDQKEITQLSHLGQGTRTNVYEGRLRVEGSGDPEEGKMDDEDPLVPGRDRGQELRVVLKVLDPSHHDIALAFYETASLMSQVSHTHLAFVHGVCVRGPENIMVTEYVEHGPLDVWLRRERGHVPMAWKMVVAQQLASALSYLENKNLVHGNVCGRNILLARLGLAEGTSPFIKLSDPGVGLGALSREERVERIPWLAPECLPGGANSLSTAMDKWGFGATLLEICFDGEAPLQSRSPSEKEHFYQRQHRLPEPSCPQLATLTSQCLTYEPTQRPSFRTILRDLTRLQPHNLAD
Chain of Tyk2 (P29597 whole entry, the tested form may be a part): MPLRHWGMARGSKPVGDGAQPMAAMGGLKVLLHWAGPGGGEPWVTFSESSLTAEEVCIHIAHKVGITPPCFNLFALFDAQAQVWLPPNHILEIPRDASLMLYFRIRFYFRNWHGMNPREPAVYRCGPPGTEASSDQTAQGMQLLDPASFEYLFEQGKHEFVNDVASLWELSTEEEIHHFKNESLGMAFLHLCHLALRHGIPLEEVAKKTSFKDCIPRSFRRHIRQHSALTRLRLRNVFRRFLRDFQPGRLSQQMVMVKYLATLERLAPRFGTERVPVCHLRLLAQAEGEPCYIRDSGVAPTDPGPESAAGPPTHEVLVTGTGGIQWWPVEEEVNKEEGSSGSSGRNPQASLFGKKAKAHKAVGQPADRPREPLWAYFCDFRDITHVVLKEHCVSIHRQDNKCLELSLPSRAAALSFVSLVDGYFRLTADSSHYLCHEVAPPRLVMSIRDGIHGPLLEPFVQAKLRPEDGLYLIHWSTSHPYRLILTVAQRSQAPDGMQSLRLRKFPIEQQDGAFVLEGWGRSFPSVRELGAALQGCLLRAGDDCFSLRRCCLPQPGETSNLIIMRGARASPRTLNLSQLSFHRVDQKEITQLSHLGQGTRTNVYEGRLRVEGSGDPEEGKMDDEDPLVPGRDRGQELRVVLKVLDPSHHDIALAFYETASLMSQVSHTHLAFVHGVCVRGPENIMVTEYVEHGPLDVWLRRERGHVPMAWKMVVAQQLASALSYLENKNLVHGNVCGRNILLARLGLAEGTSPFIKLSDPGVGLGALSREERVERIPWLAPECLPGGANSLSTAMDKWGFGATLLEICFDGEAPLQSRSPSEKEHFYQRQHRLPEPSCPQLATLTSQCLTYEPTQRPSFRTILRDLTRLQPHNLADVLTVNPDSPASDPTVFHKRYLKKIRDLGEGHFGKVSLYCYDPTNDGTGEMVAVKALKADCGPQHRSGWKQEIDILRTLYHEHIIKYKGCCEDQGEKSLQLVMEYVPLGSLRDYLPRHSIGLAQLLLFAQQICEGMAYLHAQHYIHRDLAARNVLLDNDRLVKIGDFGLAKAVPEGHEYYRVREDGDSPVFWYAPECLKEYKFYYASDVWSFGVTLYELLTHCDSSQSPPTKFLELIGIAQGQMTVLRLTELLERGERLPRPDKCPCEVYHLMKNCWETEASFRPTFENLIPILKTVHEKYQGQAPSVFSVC

Row | SMILES | IC50 (JH2 domain of human Tyk2; [1]) | IC50 (Tyk2; MSD) | IC50 (JH2 domain of human Tyk2; [2]) | IC50 (JH2 domain of human Tyk2; [3]) | IC50 (Tyk2)
1 | COCCc1cc(-c2cnc(NC(C)=O)cc2Nc2cc(C)nc(C(C)(F)F)n2)ncn1 [Example 745, N-(4-((2-(1,1-difluoroethyl)-6-methylpyrimidin-4-yl)amino)-5-(6-(2-methoxyethyl)pyrimidin-4-yl)pyridin-2-yl)acetamide] | ≤ 10 nM | 10 to 100 nM |  |  | 
2 | COCCOc1cnc(NC(C)=O)cc1Nc1nc(C)cc(C(F)CF)n1 (centres unmarked) [Example 80, N-(4-((4-(1,2-difluoroethyl)-6-methylpyrimidin-2-yl)amino)-5-(2-methoxyethoxy)pyridin-2-yl)acetamide] |  | 100 to 1000 nM | 10 to 100 nM |  | 
3 | CCOc1cnc(NC(C)=O)cc1Nc1cc(-c2cnn(CCN3CCOCC3)c2)nc(C(C)(F)F)n1 [Example 313, N-(4-((2-(1,1-difluoroethyl)-6-(1-(2-morpholinoethyl)-1H-pyrazol-4-yl)pyrimidin-4-yl)amino)-5-ethoxypyridin-2-yl)acetamide] |  | 10 to 100 nM | ≤ 10 nM |  | 
4 | CC(=O)Nc1cc(Nc2ccnc(C(C)(F)F)n2)c(-c2ncccn2)cn1 [Example 685, N-(4-((2-(1,1-difluoroethyl)pyrimidin-4-yl)amino)-5-(pyrimidin-2-yl)pyridin-2-yl)acetamide] | ≤ 10 nM | 10 to 100 nM |  |  | 
5 | COCc1cnn(-c2cnc(NC(C)=O)cc2Nc2cc(C)nc(C(C)(F)F)n2)c1 [Example 765, N-(4-((2-(1,1-difluoroethyl)-6-methylpyrimidin-4-yl)amino)-5-(4-(methoxymethyl)-1H-pyrazol-1-yl)pyridin-2-yl)acetamide] |  |  |  | ≤ 10 nM | 10 to 100 nM
6 | CC(=O)Nc1cc(Nc2cc(C)nc(C(C)(F)F)n2)c(OCCC2CCCN2C)cn1 (centres unmarked) [Example 501, N-(4-((2-(1,1-difluoroethyl)-6-methylpyrimidin-4-yl)amino)-5-(2-(1-methylpyrrolidin-2-yl)ethoxy)pyridin-2-yl)acetamide] | ≤ 10 nM | 100 to 1000 nM |  |  | 
7 | CC(=O)Nc1cc(Nc2cc(C)nc(C(C)(F)F)n2)c(-c2cn3c(n2)OCC3)cn1 [Example 770, N-(4-((2-(1,1-difluoroethyl)-6-methylpyrimidin-4-yl)amino)-5-(2,3-dihydroimidazo[2,1-b]oxazol-6-yl)pyridin-2-yl)acetamide] |  |  |  | ≤ 10 nM | ≤ 10 nM
8 | CC(=O)Nc1cc(Nc2cncc(C(C)(F)F)n2)c(-c2ncc(F)cn2)cn1 [Example 188, N-(4-((6-(1,1-difluoroethyl)pyrazin-2-yl)amino)-5-(5-fluoropyrimidin-2-yl)pyridin-2-yl)acetamide] |  | 10 to 100 nM | ≤ 10 nM |  | 
9 | COc1cnc(-c2cnc(NC(C)=O)cc2Nc2cc(OC3CC3)nc(C(C)(F)F)n2)cn1 [Example 830, N-(4-((6-cyclopropoxy-2-(1,1-difluoroethyl)pyrimidin-4-yl)amino)-5-(5-methoxypyrazin-2-yl)pyridin-2-yl)acetamide] |  |  |  | ≤ 10 nM | 10 to 100 nM
10 | CC(=O)Nc1cc(Nc2cc(C)nc(C(C)(F)F)n2)c(-c2cn3c(n2)CN(C)CC3)cn1 [Example 239, N-(4-((2-(1,1-difluoroethyl)-6-methylpyrimidin-4-yl)amino)-5-(7-methyl-5,6,7,8-tetrahydroimidazo[1,2-a]pyrazin-2-yl)pyridin-2-yl)acetamide] |  | ≤ 10 nM | ≤ 10 nM |  | 
11 | CC(=O)Nc1cc(Nc2cc(C)nc(C(C)(F)F)n2)c(OC2COC2)cn1 [Example 86, N-(4-((2-(1,1-difluoroethyl)-6-methylpyrimidin-4-yl)amino)-5-(oxetan-3-yloxy)pyridin-2-yl)acetamide] |  | 10 to 100 nM | ≤ 10 nM |  | 
12 | CCOc1cnc(NC(C)=O)cc1Nc1cc(C(C)C)nc(C(C)(F)F)n1 [Example 51, N-(4-((2-(1,1-difluoroethyl)-6-isopropylpyrimidin-4-yl)amino)-5-ethoxypyridin-2-yl)acetamide] |  | 10 to 100 nM | ≤ 10 nM |  | 
13 | COc1cnc(NC(C)=O)cc1Nc1cc(-c2ccc(F)c(C#N)c2)nc(C(C)(F)F)n1 [Example 394, N-(4-((6-(3-cyano-4-fluorophenyl)-2-(1,1-difluoroethyl)pyrimidin-4-yl)amino)-5-methoxypyridin-2-yl)acetamide] | ≤ 10 nM | 100 to 1000 nM |  |  | 
